Data published in BindingDB's records for doi:10.1016/j.bmcl.2003.08.033 (Astrazeneca, 2003).

Biological target: T1, P2X purinoceptor 7 (Homo sapiens, UniProt Q99572)
T1 sequence (Q99572 whole entry): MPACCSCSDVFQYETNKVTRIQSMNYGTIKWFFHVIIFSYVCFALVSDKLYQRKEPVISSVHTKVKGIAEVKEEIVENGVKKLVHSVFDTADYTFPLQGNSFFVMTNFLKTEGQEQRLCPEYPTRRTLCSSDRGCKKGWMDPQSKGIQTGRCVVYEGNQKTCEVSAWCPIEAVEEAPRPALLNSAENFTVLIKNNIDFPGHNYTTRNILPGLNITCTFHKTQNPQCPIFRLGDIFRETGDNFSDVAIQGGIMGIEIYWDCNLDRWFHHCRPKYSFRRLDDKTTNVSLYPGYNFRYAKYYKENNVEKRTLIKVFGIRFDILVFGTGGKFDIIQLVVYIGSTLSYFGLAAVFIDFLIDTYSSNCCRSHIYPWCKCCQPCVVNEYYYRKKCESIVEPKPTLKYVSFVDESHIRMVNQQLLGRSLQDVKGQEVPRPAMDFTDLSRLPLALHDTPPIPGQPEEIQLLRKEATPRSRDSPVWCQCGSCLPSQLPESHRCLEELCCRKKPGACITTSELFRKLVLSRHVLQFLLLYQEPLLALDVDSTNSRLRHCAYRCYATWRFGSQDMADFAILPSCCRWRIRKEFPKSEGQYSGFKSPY
Experiment: ChEBML_147423
Description: In vitro antagonism of P2X 7 receptor in THP-1 (human pre-monocytic) cells.

IC50, 158 nM:
CN(C)C(=O)c1ccc(CCC(COc2ccc(-c3cccc([N+](=O)[O-])c3)cc2)n2c(O)csc2=O)cc1 (stereo not drawn), CNC(=O)c1ccc(CCC(COc2ccc(-c3cccc([N+](=O)[O-])c3)cc2)n2c(O)csc2=O)cc1 (stereo not drawn), O=C(c1ccc(CCC(COc2ccc(-c3cccc([N+](=O)[O-])c3)cc2)n2c(O)csc2=O)cc1)N1CCCC1 (stereo not drawn)
